This passage reports EC50 results from BindingDB's records for doi:10.1021/acs.jmedchem.6b00330 (University of Bonn, 2016).

The nature of data set [1]: Inhibition of c-terminal GFP-tagged human ABCG2 expressed in MDCK2 cells assessed as enhancement of Hoechst 33342-induced cytotoxicity incubated for 72 hrs by MTT assay.
Data set [2] in a line: Inhibition of c-terminal GFP-tagged human ABCG2 expressed in MDCK2 cells assessed as enhancement of SN-38-induced cytotoxicity incubated for 72 hrs by MTT assay.
Data set [3] has as its target T1, Broad substrate specificity ATP-binding cassette transporter ABCG2 (Homo sapiens, UniProt Q9UNQ0).
T1 sequence (Q9UNQ0 whole entry): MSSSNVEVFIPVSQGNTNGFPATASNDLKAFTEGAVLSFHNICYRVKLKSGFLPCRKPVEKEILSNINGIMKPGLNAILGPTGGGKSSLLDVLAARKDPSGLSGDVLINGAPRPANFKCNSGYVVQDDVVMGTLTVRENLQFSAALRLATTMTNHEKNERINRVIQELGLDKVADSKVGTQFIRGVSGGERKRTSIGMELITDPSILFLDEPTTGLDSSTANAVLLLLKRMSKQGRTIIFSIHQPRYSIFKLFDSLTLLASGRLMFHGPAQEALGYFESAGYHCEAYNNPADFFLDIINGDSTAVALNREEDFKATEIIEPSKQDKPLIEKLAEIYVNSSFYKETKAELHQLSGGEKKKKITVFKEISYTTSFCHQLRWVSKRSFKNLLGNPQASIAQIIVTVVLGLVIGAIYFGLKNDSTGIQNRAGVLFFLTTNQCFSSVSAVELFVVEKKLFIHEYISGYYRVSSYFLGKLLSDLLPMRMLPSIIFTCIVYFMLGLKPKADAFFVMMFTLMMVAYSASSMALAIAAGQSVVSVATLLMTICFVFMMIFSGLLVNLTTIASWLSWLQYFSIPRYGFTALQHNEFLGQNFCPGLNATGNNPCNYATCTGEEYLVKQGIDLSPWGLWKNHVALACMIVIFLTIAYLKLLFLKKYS
Briefly: Inhibition of c-terminal GFP-tagged human ABCG2 expressed in MDCK2 cells assessed as enhancement of Hoechst 33342-induced cytotoxicity incubated for 72 hrs by MTT assay.

Data set [4] has as its target T1, Broad substrate specificity ATP-binding cassette transporter ABCG2. Briefly: Inhibition of c-terminal GFP-tagged human ABCG2 expressed in MDCK2 cells assessed as enhancement of SN-38-induced cytotoxicity incubated for 72 hrs by MTT assay.

Each structure is given as a SMILES string. pEC50: −log10 of the molar value.

With `N#Cc1ccc(Nc2nc(-c3ccccc3)nc3ccccc23)cc1`, the values for the pEC50 in data set [1] and in data set [2] were 7.28 and 7.39, respectively.

On to `O=[N+]([O-])c1cc(Nc2nc(-c3ccccc3)nc3ccccc23)ccc1O`, for which the pEC50 is 6.89 in data set [3] and 6.92 in data set [4].
